According to PMC5133935, “Hydrostatin-TL1, an Anti-Inflammatory Active Peptide from the Venom Gland of Hydrophis cyanocinctus in the South China Sea” (International Journal of Molecular Sciences, 2016):
“Also recorded” adds a separate entry of the source. No end group written: not given here.

Experiments:
TNF-α/TNFR1 = experiment: SPR analysis, TNF-α binding to chip-immobilized TNFR1; parameters: species or system human; conditions: H-TL1 0.5 and 1 μM; hrTNF-α 100 nM; sTNFR1 on CM5 chip, BIAcore T200; 360 s association, 200 s dissociation
Method: The T7Select1-2b display vector, T7 select primers, blocking reagent, and elution buffer were purchased from Novagen (Merck, Kenilworth, NJ, USA). […] DSS (36–50 kDa) was bought from MP Biomedicals (Solon, OH, USA). MTT, actinomycin D, and LPS were purchased from Sigma-Aldrich (St. Louis, MO, USA).
sTNFR1 (100 μg/mL) was covalently immobilized onto a CM5 sensor chip by the BIAcore T200 system (Biacore, GE Healthcare) following manufacturer’s instructions. To determine whether H-TL1 inhibits the binding of TNF-α to TNFR1, hrTNF-α was diluted in running buffer at 100 nM with or without different concentrations of H-TL1 (0.1, 0.5, and 1 μM) and subsequently passed over the sTNFR1-immobilized chip for 360 s, followed by dissociation for 200 s. The response unit indicates binding ability.

[1] = tested on: IL-1β-induced phosphorylation of IκB; experiment: Western blot, IL-1β-induced phosphorylation of IκB; format: cell-based; conditions: IL-1β as activator of NF-κB
Excerpt: The NF-κB and MAPKs pathways are key signaling pathways of TNF-α-mediated inflammation. Therefore, we analyzed the mechanisms underlying H-TL1-induced inhibition of TNF-α-mediated inflammation by Western blotting in HEK-293 cells. […] To identify the specific effects of H-TL1 on TNF-α downstream signaling, we induced IL-1β as a potent activator of NF-κB that is specific to that pathway.
For Western blotting, the cell or tissue specimen extracts were resolved in a 10% SDS-PAGE gel, and then the separated proteins were transferred to a nitrocellulose filter membrane. The antigens were detected by using specific antibodies against total and phosphorylated IκB, p38, ERK, and JNK followed by incubation with the respective secondary antibodies. GAPDH was simultaneously detected as the control to compare the protein loading in each lane. The mouse monoclonal anti-IκB, mouse monoclonal anti-p-IκB (Ser32/36), rabbit monoclonal anti-ERK, and rabbit monoclonal anti-p-ERK (Thr202/Tyr204) antibodies were from Cell Signaling Technologies (Beverly, MA, USA). The mouse polyclonal anti-p-p38 (Thr180/Tyr182), rabbit polyclonal anti-p38, rabbit monoclonal anti-p-JNK (Thr183/Tyr185), and mouse monoclonal anti-JNK antibodies were from Thermo Fisher Scientific (Rockford, IL, USA). […]

[2] = tested on: DSS-induced inflammation of colonic mucosa, BALB/c mice; experiment: Colon histopathology in DSS-induced colitis; format: in vivo, mouse; conditions: for colon morphology (H&E): H&E 40×
Method: (§1) To induce colitis, 6–8 week old male BALB/c mice were administered 2.5% DSS solution in their drinking water for 7–8 consecutive days, ad libitum. Importantly, 30–40 kDa DSS was used to establish the animal model in this study because it is known to induce more severe colitis than 5 and 500 kDa DSS [37]. The mice were concomitantly administered H-TL1 (0.5 or 1 mg/kg) once daily for 7–8 consecutive days by intraperitoneal injection. Establishment of the DSS-induced colitis was evidenced by an increase in DAI, with associated weight loss, loose stool consistency, and presence of blood in the feces. DAI was monitored during the entire experiment and was assessed according to the method described in Table 1.
The colonic tissue samples were fixed in 4% neutral formalin, dehydrated with increasing concentrations of ethanol, embedded in paraffin, and subsequently cut into 5-μm thick sections, which were mounted on slides, cleared, hydrated, and stained with hematoxylin and eosin (H&E). Histological grading was assessed according to previously described criteria (Table 2), and the scoring criteria used were similar to those described previously.

[3] = tested on: mRNA expression of pro-inflammatory cytokines in colon tissue of DSS mice; experiment: Real-time PCR, cytokine mRNA in DSS-induced colitis; format: in vivo, mouse; conditions: H-TL1 1 mg/kg; DSS induced 1.73- to 41-fold increases; n = 3
Method: Total RNA was extracted from colon tissue specimens or cells using Trizol reagent (Takara) according to the manufacturer’s instructions and was then reverse transcribed using random primers. Real-time PCR was performed on a StepOne Real-Time PCR System (Applied Biosystems, Foster City, CA, USA) to analyze the mRNA expression levels of IL-8, TNF-α, IL-1β, IL-6, VCAM-1, and ICAM-1. The relative fold changes of target gene expression were comparatively quantified by the 2^−ΔΔCt method. GAPDH was chosen as the internal control gene, and samples without treatment were designated as the comparing reference. Primers used in this study were based on published sequences.
as §1

[4] = tested on: LPS-induced lung tissue damage, C57BL/6 mice; experiment: Lung histopathology in LPS-induced acute shock; format: in vivo, mouse; conditions: 12 h after LPS; H&E 200×; n = 8
Method: The LPS-induced acute shock model was established in male C57BL/6 mice (6–8 weeks old) that were randomly allocated to five groups. LPS was administered (15 mg/kg body weight) to induce acute shock. The LPS- or normal saline-treated mice were injected with 100 μL of normal saline with or without LPS intraperitoneally, while the H-TL1 and LPS-treated mice were each administered H-TL1 at three doses of 20, 40, and 80 μg/kg 1, 3, and 5 h after the LPS injection (Figure 5A). The mice were observed every 4 h to evaluate mortality.
To assess lung damage, lung tissues were excised, inflated with 4% neutral formalin, and H&E stained 12 h following LPS injection. The lung parenchyma was examined by light microscopy and graded based on the degree of congestion, edema, inflammation, and hemorrhage. Each characteristic was scored on a scale of 0 to 3 (0, absent; 1, light; 2, moderate; and 3, strong).

## ATSKPSLKC-OH [H-TL1]
TNF-α/TNFR1
  attenuation of SPR response of TNF-α to TNFR1: inhibits the association of TNF-α with sensor chip-immobilized TNFR1; also recorded: the elicited response was markedly attenuated
[1]
  inhibition of IL-1β-induced phosphorylation of IκB: failed to inhibit the phosphorylation of IκB induced by IL-1β
[2]; H-TL1 0.5 mg/kg, 0.5 mg/kg
  colon morphology (H&E): serious colonic damage that was comparable to that of the DSS + vehicle-treated mice; also recorded: had little effect on DSS-induced colonic inflammation
[2]; H-TL1 1 mg/kg, 1 mg/kg
  colon morphology (H&E): remarkably alleviated; also recorded: alleviated DSS-induced colonic inflammation
[2]; H-TL1 1 mg/kg, n = 8, ** p < 0.01 vs. DSS only group
  total histological score: significantly reduces DSS-induced inflammation of colonic mucosa
[3]
  mRNA expression of TNF-α, IFN-γ, IL-1β, and IL-6 in DSS colitis: significantly reduced these effects
[4]
  lung parenchymal damage and inflammatory cell infiltration: markedly reduced lung parenchymal damage and inflammatory cell infiltration
